Results: patent US7790474B1, “p53 modulators” (Schering Corporation, priority 2005, dated 2010)

These compounds were tested on GST-p53 DNA binding domain (aa 92-aa 312) (assay: Scintillation Proximity Assay (displacement of 3H-labeled p53 binder)). Conditions: percentage of 3H-labeled ligand remaining bound, number in brackets = average of n.
Procedure: [drawing 38] (^3H at C bearing the chlorophenyl groups and the piperazinyl group), a radiolabeled small molecule which binds to p53, and the GST-p53 DNA binding domain (aa 92-aa 312), a quantitative screening assay was used to determine if various molecules comprise p53 binding activity. The assay is based on Scintillation Proximity Assay (SPA) technology. The complex of GST-p53,
[drawing 39] and Glutathione-SPA beads (Amersham Biosciences) were incubated with mixing for 1 hour at room temperature in the presence of the compounds to be screened. The signal was read on a Microbeta.
The numerical values expressed refer to the percentage of labeled
[drawing 40] remaining bound to the mutant p53 protein after exposure to the indicated compound.

| SMILES | SPA ASSAY % Residual T @ 2 ug/mL of drug (Average of) |
| --- | --- |
| CCC(C)(C)C1CCC(N(C)Cc2nc(NCCCN(C)C)c3ccccc3n2)CC1 (stereo not drawn) [Formula 107] | 6.3 (2) % |
| CN(C)CCCNc1nc(CN(C)C2C[C@@H]3CC[C@H]2C3)nc2ccccc12 (stereo partly drawn) [Formula 98] | 64.4% |
| NC(=O)C1CCN(c2nc(CN3CCN(C(c4ccc(Cl)cc4)c4ccc(Cl)cc4)CC3)nc3ccccc23)CC1 [Formula 52] | 79.9% |
| COc1ccc(Cl)cc1NC(=O)NCc1nc(N[C@H](C(N)=O)C(C)C)c2ccccc2n1 [Formula 60] | 60.0% |
| Clc1ccc(C(c2ccc(Cl)cc2)N2CCN(Cc3nc(N4CCN(c5ncccn5)CC4)c4ccccc4n3)CC2)cc1 [Formula 47] | 85.0% |
| CN(CCc1ccccn1)c1nc(CN2CCN(C(c3ccc(Cl)cc3)c3ccc(Cl)cc3)CC2)nc2ccccc12 [Formula 45] | 61.6% |
| Clc1ccc(C(c2ccc(Cl)cc2)N2CCN(Cc3nc(N4CCOCC4)c4ccccc4n3)CC2)cc1 [Formula 41] | 63.1% |
| OC1CCN(c2nc(CN3CCN(C(c4ccc(Cl)cc4)c4ccc(Cl)cc4)CC3)nc3ccccc23)C1 (stereo not drawn) [Formula 42] | 70.0% |
| CC1CCC(N(C)Cc2nc(NCCCN(C)C)c3ccccc3n2)CC1 (stereo not drawn) [Formula 99] | 56.5% |
| CN(C)CCCNc1nc(CN(C)C2CCCCC2)nc2ccccc12 [Formula 96] | 45.5 (3) % |
| CCN(CC)C(=O)C1CCCN(c2nc(CN3CCN(C(c4ccc(Cl)cc4)c4ccc(Cl)cc4)CC3)nc3ccccc23)C1 (stereo not drawn) [Formula 49] | 65.7% |
| CCC(C)(C)C1CCC(N2CCN(Cc3nc(NCCCN(C)C)c4ccccc4n3)CC2)CC1 (stereo not drawn) [Formula 15] | 38.1% |
| Cc1cc(C)c(NC(=O)N2CCN(Cc3nc(NCCCN(C)C)c4ccccc4n3)CC2)c(C)c1 [Formula 39] | 53.0% |
| COC(=O)[C@@H](Nc1nc(CNC(=O)Nc2cccc(Br)c2)nc2ccccc12)C(C)C [Formula 58] | 44.9% |
| COC(=O)[C@@H](Nc1nc(CNC(=O)Nc2ccccc2-c2ccccc2)nc2ccccc12)C(C)C [Formula 57] | 52.7% |
| CC(C)CCN(C)Cc1nc(NCCCN(C)C)c2ccccc2n1 [Formula 61] | 31.6 (3) % |
| CN(C)CCCNc1nc(CN2CCN(C(c3ccccc3)c3ccc(OC(F)(F)F)cc3)CC2)nc2ccccc12 (stereo not drawn) [Formula 9] | 27.9% |
| CN(C)CCCC[C@H](Nc1nc(CN2CCN(C(c3ccc(Cl)cc3)c3ccc(Cl)cc3)CC2)nc2ccccc12)C(N)=O [Formula 119] | 58.5% |
| CN(C)CCCNc1nc(CN2CCN(Cc3cccc4ccccc34)CC2)nc2ccccc12 [Formula 14] | 27.9% |
| COc1ccc(/C=C/c2nc(NCCCN(C)C)c3ccccc3n2)cc1 [Formula 114] | 61.3% |
| CCOC(=O)C1CC1CN(C)Cc1nc(NCCCN(C)C)c2ccccc2n1 (stereo not drawn) [Formula 76] | 57.8% |
| CN(C)CCCNc1nc(CN(C)C2CCSC2)nc2ccccc12 (stereo not drawn) [Formula 97] | 45.0 (3) % |

| SMILES | SPA ASSAY % Residual T @ 2 ug/mL of drug (Average of) |
| --- | --- |
| CN(C)CCCNc1nc(CN(Cc2ccccc2)Cc2ccccc2)nc2ccccc12 [Formula 113] | 61.7% |
| CN(C)CCCNc1nc(CN(C)C2CCC2)nc2ccccc12 [Formula 95] | 66.5% |
| CN(C)CCCNc1nc(CN(C)C2CCC(c3ccccc3)CC2)nc2ccccc12 (stereo not drawn) [Formula 108] | 21.0 (2) % |
| CN(C)CCCNc1nc(CN2CCN(C(=O)Nc3ccc(C#N)cc3)CC2)nc2ccccc12 [Formula 40] | 52.5% |
| COC(=O)[C@@H](Nc1nc(CNC(=O)Nc2cc(Cl)cc(Cl)c2)nc2ccccc12)C(C)C [Formula 56] | 52.3% |
| CN(C)CCCNc1nc(CN2CCN(C(=O)Nc3ccc(Cl)c(Cl)c3)CC2)nc2ccccc12 [Formula 17] | 29.9% |
| CN(C)CCCNc1nc(CN(C)C2CCN(C(=O)c3ccccc3)CC2)nc2ccccc12 [Formula 110] | 20.7 (2) % |
| COc1ccc(NC(=O)N2CCN(Cc3nc(NCCCN(C)C)c4ccccc4n3)CC2)cc1 [Formula 16] | 38.0% |
| CN(C)CCCNc1nc(CN(C)C2CCC3(CC2)OCCO3)nc2ccccc12 [Formula 104] | 23.0 (2) % |
| CCOC(=O)[C@H](CCN(C)C)Nc1nc(CN2CCN(C(c3ccc(Cl)cc3)c3ccc(Cl)cc3)CC2)nc2ccccc12 [Formula 116] | 47.7% |
| CCC(C)(C)C1CCC(N2CCN(Cc3nc(NCCCN(C)C)c4ccccc4n3)CC2)C1 (stereo not drawn) [Formula 38] | 55.7% |
| COC(=O)[C@@H](Nc1nc(CN2CCN(C(=O)NC(c3ccccc3)c3ccccc3)CC2)nc2ccccc12)C(C)C [Formula 12] | 45.6% |
| CN(C)CCCNc1nc(CN2CCN(C(c3ccc(Cl)cc3)c3ccc(Cl)cc3)CC2)nc2ccccc12 [Formula 8] | 16.1% |
| CN(C)CCCNc1nc(CN(C)C2CCC(C#N)(c3ccccc3)CC2)nc2ccccc12 (stereo not drawn) [Formula 109] | 5.5 (2) % |
| CC(=O)N1CCC(N(C)Cc2nc(NCCCN(C)C)c3ccccc3n2)CC1 [Formula 101] | 47.7 (3) % |
| OC1CCN(c2nc(CN3CCN(C(c4ccc(Cl)cc4)c4ccc(Cl)cc4)CC3)nc3ccccc23)CC1 [Formula 51] | 61.6% |
| CN(C)CCCNc1nc(CN(C)CC2CCCCC2)nc2ccccc12 [Formula 111] | 57.0% |
| CN(C)CCCNc1nc(CN(C)C2CCC(C(C)(C)C)CC2)nc2ccccc12 (stereo not drawn) [Formula 103] | 7.8 (2) % |
| CN(C)CCCNc1nc(CN(C)C2CCC(C(F)(F)F)CC2)nc2ccccc12 (stereo not drawn) [Formula 106] | 52.8% |
| CC(C)COC(=O)[C@H](CCCN(C)C)Nc1nc(CN2CCN(C(c3ccc(Cl)cc3)c3ccc(Cl)cc3)CC2)nc2ccccc12 [Formula 117] | 72.5% |
| CN(Cc1ccccc1)Cc1nc2ccccc2c(=O)[nH]1 [Formula 34] | 36.8% |
| CC(C)C1CCC(N(C)Cc2nc(NCCCN(C)C)c3ccccc3n2)CC1 (stereo not drawn) [Formula 100] | 13.5 (3) % |

More lines, now with the values ahead:

| SPA ASSAY % Residual T @ 2 ug/mL of drug (Average of) | SMILES |
| --- | --- |
| 67.6% | CC(CCN(C)Cc1nc(NCCCN(C)C)c2ccccc2n1)c1ccccc1 (stereo not drawn) [Formula 79] |
| 68.4% | CN(C)CCCNc1nc(CN(C)C/C=C/c2ccccc2)nc2ccccc12 [Formula 71] |
| 49.5 (3) % | CN(C)CCCNc1nc(CN(C)Cc2cc(Cl)ccc2Cl)nc2ccccc12 [Formula 87] |
| 54.0% | CN(C)CCCNc1nc(CN(C)Cc2ccc(Oc3ccccc3)cc2)nc2ccccc12 [Formula 91] |
| 52.7% | CN(C)CCCNc1nc(CN(C)Cc2ccco2)nc2ccccc12 [Formula 63] |
| 58.9% | CN(C)CCCNc1nc(CN(C)Cc2c(F)cccc2F)nc2ccccc12 [Formula 75] |
| 60.1 (3) % | CN(C)CCCNc1nc(CN(C)Cc2ccccc2OCC(=O)O)nc2ccccc12 [Formula 89] |
| 65.6% | CN(C)CCCNc1nc(CN(C)Cc2ccccc2C(=O)O)nc2ccccc12 [Formula 80] |
| 53.7% | CN(C)CCCNc1nc(CN(C)Cc2ccccc2Sc2ccc(Cl)cc2)nc2ccccc12 [Formula 94] |
| 25.7% | CN(C)CCCNc1nc(CN(C)Cc2cccc3cc[nH]c23)nc2ccccc12 [Formula 77] |
| 46.8% | CN(C)CCCNc1nc(CN(C)Cc2cccc3c2OCO3)nc2ccccc12 [Formula 81] |
| 44.4% | COc1ccc(CN(C)Cc2nc(NCCCN(C)C)c3ccccc3n2)cc1 [Formula 73] |
| 22.2% | CN(C)CCCNc1nc(CN(C)Cc2ccccc2)nc2ccccc12 [Formula 35] |
| 55.1% | CN(C)CCCNc1nc(CN(C)Cc2ccc(Cl)cc2)nc2ccccc12 [Formula 74] |
| 69.7% | Cc1cccc(C)c1CN(C)Cc1nc(NCCCN(C)C)c2ccccc2n1 [Formula 72] |
| 50.9% | CN(C)CCCNc1nc(CN(C)Cc2cccc(C#N)c2)nc2ccccc12 [Formula 69] |
| 37.0 (3) % | CN(C)CCCNc1nc(CN(C)Cc2nccs2)nc2ccccc12 [Formula 66] |
| 48.4 (3) % | CN(C)CCCNc1nc(CN(C)Cc2cccc(C(F)(F)F)c2)nc2ccccc12 [Formula 85] |
| 61.1% | CN(C)CCCNc1nc(CN(C)Cc2cccc(Cl)c2Cl)nc2ccccc12 [Formula 86] |
| 54.1% | CN(C)CCCNc1nc(CN(C)Cc2ccc(C#N)cc2)nc2ccccc12 [Formula 70] |
| 68.1% | CN(C)CCCNc1nc(CN(C)Cc2ccc(-c3ccccc3)cc2)nc2ccccc12 [Formula 90] |
| 65.5% | CN(C)CCCNc1nc(CN(C)Cc2cccs2)nc2ccccc12 [Formula 65] |
